# Source: patent US11267815B2, “Class of amino-substituted nitrogen-containing fused ring compounds, preparation method therefor, and use thereof” (SHANGHAI RINGENE BIOPHARMA CO., LTD., priority 2017, dated 2022)
# Like-named read-outs stand apart in the source and are kept apart here.
# Legend:
# FGFR1 = FGFR1 (Homo sapiens (Human), UniProt P11362); experiment: Inhibitory activity on kinase FGFR1 (Caliper mobility shift); assay type: biochemical
# Protocol: (§1) (1). Preparation of 1×Kinase buffer; (2) Preparation of the gradient concentrations of the compounds: the concentration of the compounds to be tested started from 10 μM, which was 3-fold diluted to prepare 10 dilutions, and then tested in duplicated wells. The compounds were 100-fold serially diluted into 10 dilutions with different final concentrations in 96-well plates, each of which was further diluted with 1×Kinase buffer to prepare an intermediate dilution having a concentration of 5 times the final concentration; (3) adding 5 μL of each of the prepared compound solution into the compound wells of 384-well plates, and each concentration set single well; adding 5 μL of 5% DMSO into negative control wells and positive control wells respectively; (4) preparing a kinase solution having a concentration of 2.5 times the final concentration with 1×kinase buffer; (5) adding 10 μL of kinase solution at a concentration of 2.5 times the final concentration into the compound wells and the positive control wells respectively; and adding 10 μL of 1×Kinase buffer into the negative control wells; (6) centrifuging at 1000 rpm for 30 seconds, and incubating at room temperature for 10 minutes after shaking and mixing evenly; (7) preparing a mixed solution of ATP and Kinase substrate 22 having a concentration of 2.5 times the final concentration with 1×Kinase Buffer; (8) adding 10 μL of the mixed solution of ATP and substrate at a concentration of 2.5 times the final concentration to initiate the reaction; (9) Centrifuging the 384-well plates at 1000 rpm for 30 seconds, and incubating at 28° C. for corresponding time respectively after shaking and mixing; (10) adding 30 μL of stop detection solution to stop the kinase reaction, centrifuging at 1000 rpm for 30 seconds, and shaking and mixing the mixture evenly; (11) reading the conversion rate by Caliper Ezreader II. The dose-effect curve was fitted by the log (inhibitor) vs. response-variable slope of GraphPad Prism 5 with the log value of concentration as the X axis and the percentage inhibition rate as the Y axis, then the IC50 value of each compound on the enzyme activity was obtained.
# FGFR4 = FGFR4 (Homo sapiens (Human), UniProt P22455); experiment: Inhibitory activity on kinase FGFR4 (Caliper mobility shift); assay type: biochemical
# Protocol: as §1
# Hep3B cells = experiment: Hep3B cell proliferation (CellTiter-Glo, 72 hours); assay type: cell-based; settings: Homo sapiens, Hep3B
# Protocol: 1. Test method: inoculating Hep3B cells (ATCC) in logarithmic growth phase at an appropriate density in a 96-well culture plate, with 100 μL per well. After overnight culture, different concentrations of compounds were added to stay for 72 hours, and menstruum control group (negative control) was set, and the incubation was performed under the condition of 5% CO2 at 37° C. Adding 10 mM compound stock solution to the cells, after the cells were incubated with the compounds for 72 hours, the effects of the compounds on cell proliferation were determined by CellTiter-Glo (Promega) method. 30 μL CTG reagent was added to each well and the resulting mixtures were placed in a 37° C. incubator for 2-4 hours. Then the plate was read by a full-wavelength microplate enzyme reader Envision at a […].
# The inhibition rates (%) of the compounds on tumor cell growth were calculated by the following formula: inhibition rate (%)=(OD negative control well−OD administration well)/OD negative control well×100%. IC50 values were obtained by four parameters regression using Graphpad Prism 5 software.
# [1] = system: EGFR, VEGFR, PDGFR, FGFR, RET, MET, Src, Lyn, Syk, MEK, CDK, RA, ROS; experiment: Inhibitory activities on different kinases (selectivity); assay type: biochemical; settings: versus different kinases
# Protocol: The inhibitory activities of the compounds of the present disclosure on different kinases such as EGFR, VEGFR, PDGFR, FGFR, RET, MET, Src, Lyn, Syk, MEK, CDK, RA, ROS, etc., were also determined.
# xenograft tumors = experiment: Xenograft tumor growth in nude mice; assay type: in vivo; settings: oral, daily for three weeks, lower dose (even less than 20 mg/kg)
# Protocol: 1. The tumor tissue in vigorous growth period was cut into about 1.5 mm^3, and subcutaneously inoculated into the right armpit of nude mice under sterile condition. The diameter of the subcutaneous transplanted tumors in nude mice was measured with vernier caliper, and the animals were randomly divided into groups when the average volume of the tumor reached about 130 mm^3. The embodiment compounds (prepared to the desired concentration with water for injection containing 1% Tween 80 for later use) were orally administered at a predetermined dose every day for three weeks, while a same amount of menstruum was administered in the menstruum control group. During the whole experiment, the diameter of the xenograft tumor was measured twice a week and the weight of the mice was weighed at the same time. The tumor volume (TV) was calculated by the formula: TV=½×a×b^2, where a and b represent length and width respectively. According to the measured results, the relative tumor volume (RTV) was calculated by the formula: RTV=Vt/V0, where V0 was the tumor volume measured when the mice were divided into cages for administration (i.e., d0) and Vt was the tumor volume at each measurement. […]
# FGFR1, sequence (P11362 22-822): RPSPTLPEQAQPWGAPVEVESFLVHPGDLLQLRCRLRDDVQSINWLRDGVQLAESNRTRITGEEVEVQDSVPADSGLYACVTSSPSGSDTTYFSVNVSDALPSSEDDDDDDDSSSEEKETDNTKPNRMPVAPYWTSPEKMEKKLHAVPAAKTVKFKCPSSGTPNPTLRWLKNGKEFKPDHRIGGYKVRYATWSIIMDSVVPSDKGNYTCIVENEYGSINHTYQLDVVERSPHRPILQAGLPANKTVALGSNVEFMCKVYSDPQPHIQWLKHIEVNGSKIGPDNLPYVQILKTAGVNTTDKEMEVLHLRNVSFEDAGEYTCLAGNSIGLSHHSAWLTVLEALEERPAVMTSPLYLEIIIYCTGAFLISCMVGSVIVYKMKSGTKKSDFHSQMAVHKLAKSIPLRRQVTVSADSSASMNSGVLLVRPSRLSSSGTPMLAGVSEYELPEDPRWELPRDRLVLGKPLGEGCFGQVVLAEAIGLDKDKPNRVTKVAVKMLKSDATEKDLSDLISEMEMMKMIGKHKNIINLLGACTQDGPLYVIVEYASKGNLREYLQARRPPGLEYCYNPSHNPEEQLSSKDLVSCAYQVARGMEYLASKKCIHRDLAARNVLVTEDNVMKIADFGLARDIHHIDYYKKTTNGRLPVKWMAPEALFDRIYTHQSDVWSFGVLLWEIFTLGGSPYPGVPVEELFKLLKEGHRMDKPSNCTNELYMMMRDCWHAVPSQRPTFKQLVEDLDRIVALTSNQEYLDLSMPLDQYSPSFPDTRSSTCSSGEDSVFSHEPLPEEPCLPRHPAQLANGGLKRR
# FGFR4, sequence (P22455 22-802): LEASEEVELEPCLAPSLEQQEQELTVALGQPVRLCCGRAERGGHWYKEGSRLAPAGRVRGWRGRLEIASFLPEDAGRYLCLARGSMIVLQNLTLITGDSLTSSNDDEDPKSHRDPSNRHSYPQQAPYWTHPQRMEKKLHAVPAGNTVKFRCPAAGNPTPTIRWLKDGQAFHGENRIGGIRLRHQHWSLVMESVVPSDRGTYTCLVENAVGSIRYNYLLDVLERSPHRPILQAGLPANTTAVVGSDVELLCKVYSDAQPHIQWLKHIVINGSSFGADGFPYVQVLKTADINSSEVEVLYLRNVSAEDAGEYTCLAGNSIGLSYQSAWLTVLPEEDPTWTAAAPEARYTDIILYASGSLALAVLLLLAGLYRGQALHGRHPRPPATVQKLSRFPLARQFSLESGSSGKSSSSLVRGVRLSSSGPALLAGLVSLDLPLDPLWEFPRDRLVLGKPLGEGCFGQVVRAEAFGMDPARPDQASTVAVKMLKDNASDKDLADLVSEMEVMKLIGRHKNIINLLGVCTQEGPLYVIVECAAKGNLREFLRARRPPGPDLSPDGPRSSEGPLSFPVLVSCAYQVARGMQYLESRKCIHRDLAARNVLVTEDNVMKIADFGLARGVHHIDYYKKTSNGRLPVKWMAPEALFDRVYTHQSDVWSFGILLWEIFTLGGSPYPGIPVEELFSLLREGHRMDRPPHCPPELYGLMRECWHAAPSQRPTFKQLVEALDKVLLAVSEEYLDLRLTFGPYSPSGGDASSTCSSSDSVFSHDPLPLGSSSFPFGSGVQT
structure (smiles),measurement,setting,value
"C=CC(=O)N1CCN(CCCc2cn3c(n2)c(-c2c(Cl)c(OC)cc(OC)c2Cl)cc2cnc(NC)nc23)CC1 [Embodiment 3, 1-(4-(3-(6-(2,6-dichloro-3,5-dimethoxyaniline)-2-(methylamine)imidazo[1′,2′:1,6]pyrido[2,3-d]pyrimidin-8-yl)propyl)piperazine-1-yl)prop-2-en-1-one]",IC50,FGFR1; read-out: FGFR1 IC50,< 0.02 µM
same,IC50,FGFR1; read-out: IC50 of inhibitory activity on FGFR1,< 0.001 µM
same,IC50,FGFR4; read-out: FGFR4 IC50,< 0.02 µM
same,IC50,FGFR4; read-out: IC50 of inhibitory activity on FGFR4,< 0.001 µM
same,IC50,Hep3B cells; read-out: Hep3B IC50,< 0.02 µM
same,IC50,Hep3B cells; read-out: Hep3B cells inhibitory activity IC50,< 0.01 µM
same,kinase selectivity,[1],greater than 100 times
same,anti-tumor rate,xenograft tumors,more than 80%
